Results on 7 compounds are retold here after patent US8889671B2, “Compounds and methods for treating bacterial infections” (AstraZeneca AB, priority 2013, dated 2014).

Molecules are shown by their SMILES. Converted amounts (≈) assume the structure as drawn. Like-named read-outs stand apart in the source and are kept apart here. Some results are limits rather than exact numbers.

The test system of experiment [1] is Neisseria gonorrhoeae. Briefly: MIC against 100 N. gonorrhoeae isolates, CLSI reference agar dilution. In kind it is cell-based. As to conditions: all 100 N. gonorrhoeae isolates. (Agar dilution tests growth on a series of plates holding different concentrations.)
Experiment [2] relates to 7 S. aureus strains and 1 strain of Streptococcus pyogenes. The experiment is described as follows: Minimum bactericidal concentration (MBC). In kind it is cell-based, Staphylococcus aureus; Streptococcus pyogenes. As to conditions: 7 S. aureus strains and 1 S. pyogenes strain.
Experiment [3] relates to variants of S. aureus and S. pyogenes ARC838. The experiment is described as follows: Susceptibility of Example 5 serial-passage variants to comparators. In kind it is cell-based, Staphylococcus aureus; Streptococcus pyogenes. The conditions noted are these: variants after twenty passages with Example 5.

In experiment [1], `CO/N=C(\C(=O)N[C@@H]1C(=O)N2C(C(=O)O)=C(CSc3nc(=O)c(O)nn3C)CS[C@H]12)c1csc(N)n1` [ceftriaxone, reference compound] came in with an MIC50 of 0.015 µg/mL (≈ 0.027 µM).

Compound `CO/N=C(\C(=O)N[C@@H]1C(=O)N2C(C(=O)O)=C(CSc3nc(=O)c(O)nn3C)CS[C@H]12)c1csc(N)n1` [ceftriazone, reference compound] had an MIC90 in experiment [1] of 0.06 µg/mL (≈ 0.108 µM).

As for `C[C@H]1COc2c(N3CCN(C)CC3)c(F)cc3c(=O)c(C(=O)O)cn1c23` [levofloxacin], in experiment [2], the “minimum bactericidal concentrations (MBCs) relative to the MIC” value was at most 2 fold. The “change in susceptibility of Example 5-selected variants” value in experiment [3] was at most 4 fold.

With `CC(=O)NC[C@H]1CN(c2ccc(N3CCOCC3)c(F)c2)C(=O)O1` [linezolid], in experiment [3], the “change in susceptibility of Example 5-selected variants” value is on record as at most 4 fold.

As to `CC1(C)S[C@@H]2[C@H](NC(=O)Cc3ccccc3)C(=O)N2[C@H]1C(=O)O` [penicillin, reference compound], in experiment [1] (Neisseria gonorrhoeae, read-out: MIC50), the MIC50 came out at 2 µg/mL (≈ 5.98 µM). Besides, the MIC90 in experiment [1] (Neisseria gonorrhoeae, read-out: MIC90) was above 2 µg/mL.

In experiment [1], `CN(C)[C@@H]1C(=O)C(C(N)=O)=C(O)[C@@]2(O)C(=O)C3=C(O)c4c(O)cccc4[C@@](C)(O)[C@H]3C[C@@H]12` [tetracycline, reference compound] showed an MIC50 of 1 µg/mL (≈ 2.25 µM) and an MIC90 of 2 µg/mL (≈ 4.5 µM).

With `CN[C@H](CC(C)C)C(=O)N[C@H]1C(=O)N[C@@H](CC(N)=O)C(=O)N[C@H]2C(=O)N[C@H]3C(=O)N[C@H](C(=O)N[C@H](C(=O)O)c4cc(O)cc(O)c4-c4cc3ccc4O)[C@H](O)c3ccc(c(Cl)c3)Oc3cc2cc(c3O[C@@H]2O[C@H](CO)[C@@H](O)[C@H](O)[C@H]2O[C@H]2C[C@](C)(N)[C@H](O)[C@H](C)O2)Oc2ccc(cc2Cl)[C@H]1O` [vancomycin], the “minimum bactericidal concentrations (MBCs) relative to the MIC” value in experiment [2] was at most 2 fold. In addition, in experiment [3], the “change in susceptibility of Example 5-selected variants” value is at most 4 fold.

One may read the MIC50 as an inhibitory concentration at the 50% level, which refers to growth in some studies and to a panel of isolates in others. In general, MIC90 refers to an inhibitory concentration at the 90% level, which refers to growth in some studies and to a panel of isolates in others.
